IC50 and Ki data for eight molecules are collected here from ChEMBL document CHEMBL4261594, “Unexpected AChE inhibitory activity of (2E)α,β-unsaturated fatty acids” (Bioorg Med Chem Lett, 2018).

For test [1], the target named is T1, Acetylcholinesterase (Electrophorus electricus, UniProt O42275). Put plainly: Inhibition of electric eel AChE using acetylthiocholine iodide as substrate preincubated for 20 mins followed by substrate addition and measured at 1 min intervals for 30 mins by Ellman's method. On the technique in general: In Ellman's method for cholinesterases, released thiocholine reacts with DTNB.
T1 sequence (O42275 whole entry): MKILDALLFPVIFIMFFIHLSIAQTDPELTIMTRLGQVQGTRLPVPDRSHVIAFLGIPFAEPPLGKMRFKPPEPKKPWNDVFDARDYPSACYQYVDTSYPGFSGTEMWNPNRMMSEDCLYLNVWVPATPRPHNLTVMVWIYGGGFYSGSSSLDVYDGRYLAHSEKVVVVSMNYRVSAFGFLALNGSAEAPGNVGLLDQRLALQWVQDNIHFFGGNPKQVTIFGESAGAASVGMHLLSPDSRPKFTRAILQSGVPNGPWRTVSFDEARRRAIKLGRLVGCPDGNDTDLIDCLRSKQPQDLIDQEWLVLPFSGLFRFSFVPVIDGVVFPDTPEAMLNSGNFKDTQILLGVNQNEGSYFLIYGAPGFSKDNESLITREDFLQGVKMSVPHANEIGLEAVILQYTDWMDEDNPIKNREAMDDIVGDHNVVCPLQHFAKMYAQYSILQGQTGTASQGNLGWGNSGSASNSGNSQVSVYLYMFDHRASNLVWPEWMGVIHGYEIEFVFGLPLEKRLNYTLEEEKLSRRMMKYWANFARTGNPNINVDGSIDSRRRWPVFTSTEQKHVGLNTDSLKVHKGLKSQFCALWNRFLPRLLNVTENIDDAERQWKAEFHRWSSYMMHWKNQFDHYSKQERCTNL

In test [2] the target is T1, Acetylcholinesterase. Description: Mixed type inhibition of electric eel AChE using acetylthiocholine iodide as substrate preincubated for 20 mins followed by substrate addition and measured at 1 min intervals for 30 mins by Dixon plot analysis.
Test [3] has as its target T1, Acetylcholinesterase. Put plainly: Mixed type inhibition of electric eel AChE using acetylthiocholine iodide as substrate preincubated for 20 mins followed by substrate addition and measured at 1 min intervals for 30 mins by Cornish-Bowden plot analysis.

A word on the IC50: it is the concentration that gives 50% inhibition. One may read the Ki as the equilibrium dissociation constant of an inhibitor or competing ligand from its target. Read a high Ki as weaker binding.

Consider `CCCCCCCCCCCCC/C=C/C(=O)O`, for which, in test [1] (read-out: IC50), the half-maximal inhibitory concentration (IC50) stood at 7.9 µM. Regarding `CCCCCCCCCCCCCCCCCC(=O)O` [STEARIC ACID], in test [1] (read-out: IC50), the IC50 is 7.5 µM. For the same molecule, the inhibition constant (Ki) stood at 4.4 µM in test [2] and 3.62 µM in test [3]. Turning to `CCCCCCCCCCCCCCCCC/C=C/C(=O)O`, the IC50 in test [1] (read-out: IC50) is 5 µM. Also, the Ki stood at 1.51 µM in test [2] and 7.15 µM in test [3]. In the case of `CCCCCCCCCCCCCCCCCCC/C=C/C(=O)O`, in test [1] (read-out: IC50), the 50% inhibitory concentration (IC50) was found to be 11.7 µM.

Turning to `CCCCCCCCCCCCCCCC(=O)O` [PALMITIC ACID], the IC50 in test [1] (read-out: IC50) was determined as 10.1 µM. Regarding `CCCCCCCCCCCCCCCCCCCC(=O)O` [ARACHIDIC ACID], in test [1] (read-out: IC50), the IC50 amounted to 12.8 µM. Regarding `CCCCCCCCCCCCCCC/C=C/C(=O)O`, the IC50 in test [1] (read-out: IC50) stood at 4.3 µM. For the same molecule, the Ki is 3.21 µM in test [2] and 5.51 µM in test [3]. For `CCCCCCCCCCCCCCCCCCCCCC(=O)O` [BEHENIC ACID], the IC50 entry in test [1] is given as “Nd(Insoluble)”.
